Measured values: US10154684B2, “Hair regrowth and growth promoter and use thereof” (PHARMA FOODS INTERNATIONAL CO., LTD., priority 2014, dated 2018)

System: C57BL/6 (female) mice
Test: Assessment of hair growth-promoting effect on androgen-induced telogen in C57BL/6 mice
Assay type: in vivo, mouse
Details: DHT 2 mg/mL, 100 μL subcutaneously every other day, casein-containing feed, Day 14, vs no DHT
Experimental: C57BL/6 (female) mice available from Charles River Laboratories Japan, Inc. were used for the test. The animals were randomly divided into test groups so that the mean body weight was approximately equal between groups. The mice were housed three per cage at room temperature (25° C.) under a 12-hour light-dark cycle.
The mice at six weeks old purchased from the vendor were preliminarily bred for one week for acclimation to the test environment. A commercially available hair removal cream was applied to the dorsal region of the mice at an age of seven weeks old to remove the hair.
Until the start of the test, the mice were fed with free access to a solid CRF-1 feed (Oriental Yeast Co., Ltd.) and tap water as drinking water.
The hair of the 7-week-old C57BL/6 mice was in the telogen phase of the hair cycle, but due to the stimulation of hair removal, the hair gradually entered into the anagen phase. This transition in the hair cycle was hampered by administration of an androgen after the hair removal. […] From two days after the hair removal, the mixed feeds indicated in Table 5 were given with free access thereto.
On the final observation day (Day 14 of administration), the mice in the test and control groups were anesthetized and fixed on a photography table, and the hair removal region was photographed.

## C[C@]12CCC(=O)C[C@@H]1CC[C@@H]1[C@@H]2CC[C@]2(C)[C@@H](O)CC[C@@H]12 [DHT, dihydrotestosterone]
  Blackening of the dorsal skin after hair removal: inhibited
